Results: patent publication US8574831B2, “Mutational profiles in HIV-1 reverse transcriptase correlated with phenotypic drug resistance” (Virco N.V., priority 2000, dated 2013)

System: HIV with mutations in the HIV protease sequence
Assay: Phenotypic fold resistance to protease inhibitors, protease mutations 84A/84L/84C/54M/54L/54V in a background (Examples 8-13)
Assay type: cell-based, HIV-1
Method: As is the case with the genotyping assays, the recombinant virus assay starts with the amplification of viral target sequences by means of PCR. The amplicons are incorporated into a proviral laboratory clone with sequences homologous to those present in the amplicon deleted. This generates a stock of chimeric viruses. The viruses are tested for their ability to grow in the presence of different concentrations of drugs. Results are obtained by calculating IC50 values for each inhibitor and by reporting the results as IC50 values, expressed in μM concentrations, or by computing the ratio of the IC50 values found for the chimeric virus to the IC50 values found for a wild type susceptible laboratory virus tested in parallel. In the latter case, resistance is expressed as “fold-resistance” compared to a wild-type susceptible HIV-1 strain. In order to meet the need for high-volume testing and a short turn-around time for an individual test, the latest generation of phenotyping assays has undergone further modifications. The use of reporter gene systems for susceptibility testing allows the implementation of laboratory automation and standardization. See Pauwels, et al., J. Virol. Methods 20, 309-321 (1998); Paulous, S., et al., International Workshop on HIV Drug Resistance, Treatment Strategies and Eradication, St. Petersburg, Fla., USA. Abstr. 46 (1997); and Deeks, S. G., et al., 2nd International Workshop on HIV Drug Resistance and Treatment Strategies, Lake Maggiore, Italy. Abstr. 53 (1998).
The ANTIVIROGRAM® assay (Virco) (WO 97/27480) is based on homologous recombination of patient derived HIV-1 gag/PR/RT sequences into a proviral HIV-1 clone correspondingly deleted for the gag/PR/RT sequences. See Pauwels, et al., J. Virol. Methods 20, 309-321 (1998). A similar assay (Phenosense ViroLogic) is based on enzymatic ligation of patient-derived PR/RT sequences into a correspondingly deleted proviral vector carrying an indicator gene, luciferase, inserted in the deleted HIV-1 envelope gene. See Deeks, S. G., et al., 2nd International Workshop on HIV Drug Resistance and Treatment Strategies, Lake Maggiore, Italy. Abstr. 53 (1998). Hertogs et al. Antimicrob. Agents Chemother. 44(3) 568-573 (2000) the disclosures of which are herein incorporated by reference.
The methods of monitoring HIV-1 drug resistance, may also be used in combination with phenotypic drug resistance testing of viral isolates. For example, in one embodiment, a phenotypic test is utilized that is based upon the construction of chimeric HIV-1 strains composed of the protease (PR) and reverse transcriptase (RT) gene sequences which are isolated and amplified from the patient viral RNA. These strains may subsequently be recombined inside CD4+ T cells with a standard laboratory isogenic (HXB2) HIV-1 DNA construct from which the PR/RT gene sequences were deleted. The recombinant strains may then be grown in the presence of the above-mentioned antiviral drugs and the susceptibility of the viral isolates may be expressed as fold-change value of the IC50 of the drug on the patient isolates over the IC50 of the drug on a wild-type laboratory reference strain.

## CC(C)(C)NC(=O)[C@@H]1CN(Cc2cccnc2)CCN1C[C@@H](O)C[C@@H](Cc1ccccc1)C(=O)N[C@H]1c2ccccc2C[C@H]1O [Indinavir, indinavir]
Table 9 #1, protease genotype WT
  mean fold increase in resistance: 0.9 fold
Table 9 #2, protease genotype 10I
  mean fold increase in resistance: 0.7 fold
Table 9 #3, protease genotype 46I
  mean fold increase in resistance: 0.6 fold
Table 9 #4, protease genotype 46I + 84V
  mean fold increase in resistance: 2.6 fold
Table 9 #5, protease genotype 46I + 84A
  mean fold increase in resistance: 26.8 fold
Table 9 #6, protease genotype 10I + 46I
  mean fold increase in resistance: 2.9 fold
Table 9 #7, protease genotype 10I + 46I + 84V
  mean fold increase in resistance: 2.4 fold
Table 9 #8, protease genotype 10I + 46I + 84A
  mean fold increase in resistance: 33.4 fold
Table 9 #9, protease genotype 10L/I + 46I + 84A
  mean fold increase in resistance: 44.5 fold
Table 9 #10, protease genotype 10I + 46I + 84A
  mean fold increase in resistance: 26 fold
Table 9 #11, protease genotype 46I + 71V
  mean fold increase in resistance: 3.7 fold
Table 9 #12, protease genotype 46I + 71V + 84V/I
  mean fold increase in resistance: 3.1 fold
Table 9 #13, protease genotype 46I + 71V + 84A
  mean fold increase in resistance: 56.5 fold
Table 9 #14, protease genotype 10F + 46I + 71V
  mean fold increase in resistance: 22.2 fold
Table 9 #15, protease genotype 10I + 46I + 71V + 84V
  mean fold increase in resistance: 50.5 fold
Table 9 #16, protease genotype 10I + 46I + 71V + 84A
  mean fold increase in resistance: 45.9 fold
Table 9 #17, protease genotype 10V + 46I + 71T + 84A
  mean fold increase in resistance: 57.9 fold
Table 9 #18, protease genotype 10I + 46I + 71V + 77I
  mean fold increase in resistance: 2.2 fold
Table 9 #19, protease genotype 10I + 46I + 71V + 77I + 84V
  mean fold increase in resistance: 2.2 fold
Table 9 #20, protease genotype 10I + 46I + 71V + 77I + 84A
  mean fold increase in resistance: 57.9 fold
Table 9 #21, protease genotype 10I + 33L/I + 46I + 71V + 77V/I + 84A
  mean fold increase in resistance: 31.4 fold
Table 10 #1, protease genotype 10I + 36I + 71V
  mean fold increase in resistance: 1.4 fold
Table 10 #2, protease genotype 10I + 36I + 71I + 84V
  mean fold increase in resistance: 1.0 fold
Table 10 #3, protease genotype 10I + 36I + 71I + 84L
  mean fold increase in resistance: 3.7 fold
Table 11 #1, protease genotype WT
  mean fold increase in resistance: 0.9 fold
Table 11 #2, protease genotype 84V
  mean fold increase in resistance: 0.7 fold
Table 11 #3, protease genotype 84C
  mean fold increase in resistance: 2.7 fold
Table 11 #4, protease genotype 10I
  mean fold increase in resistance: 0.7 fold
Table 11 #5, protease genotype 10I + 84V
  mean fold increase in resistance: 1.8 fold
Table 11 #6, protease genotype 10I + 84C
  mean fold increase in resistance: 4.3 fold
Table 11 #7, protease genotype 77I
  mean fold increase in resistance: 0.4 fold
Table 11 #8, protease genotype 77I + 84V
  mean fold increase in resistance: 2.5 fold
Table 11 #9, protease genotype 77I + 84C
  mean fold increase in resistance: 3.1 fold
Table 11 #10, protease genotype 77I + 84C
  mean fold increase in resistance: 3.2 fold
Table 11 #11, protease genotype 10I + 24I + 36I + 46I + 71V + 84C
  mean fold increase in resistance: 7.5 fold
Table 12, V19263, genotype 77I
  Fold change in IC50: 0.4 fold
Table 12, V20160, genotype WT
  Fold change in IC50: 0.9 fold
Table 12, V021667, genotype 10I
  Fold change in IC50: 0.7 fold
Table 12, V030496, genotype 10I + 77I
  Fold change in IC50: 0.4 fold
Table 12, V048869, genotype 10I + 54M + 77I + 90M
  Fold change in IC50: 7.1 fold
Table 12, V048872, genotype 33F + 54M + 77I + 90M
  Fold change in IC50: 3.2 fold
Table 12, V048873, genotype 33F + 54M + 77I + 90M
  Fold change in IC50: 1.7 fold
Table 12, V048877, genotype 10I + 33F + 77I + 90M
  Fold change in IC50: 2.9 fold
Table 12, V048878, genotype 10I + 33F + 54M + 71V + 77I + 90M
  Fold change in IC50: 5.2 fold
Table 12, V048879, genotype 10I + 33F + 54M + 71V + 77I + 90M
  Fold change in IC50: 6.5 fold
Table 12, V048880, genotype 10I + 33F + 77I + 90M
  Fold change in IC50: 1.3 fold
Table 12, V052940, genotype 71V
  Fold change in IC50: 0.7 fold
Table 12, V052942, genotype 10I + 71V
  Fold change in IC50: 0.6 fold
Table 12, V052943, genotype 10I + 90M
  Fold change in IC50: 0.5 fold
Table 12, V052944, genotype 10I + 90M
  Fold change in IC50: 0.5 fold
Table 12, V052945, genotype 77I + 90M
  Fold change in IC50: 0.6 fold
Table 12, V052946, genotype 71V + 90M
  Fold change in IC50: 0.9 fold
Table 12, V052947, genotype 10I + 77I + 90M
  Fold change in IC50: 2.9 fold
Table 12, V052948, genotype 10I + 71V + 90M
  Fold change in IC50: 8.6 fold
Table 12, V052949, genotype 10I + 71V + 77I + 90M
  Fold change in IC50: 2.7 fold
Table 12, V052950, genotype 33F
  Fold change in IC50: 0.6 fold
Table 12, V052951, genotype 33F + 77I
  Fold change in IC50: 0.4 fold
Table 12, V052953, genotype 10I + 33F + 77I
  Fold change in IC50: 0.8 fold
Table 12, V052954, genotype 33F + 77I + 90M
  Fold change in IC50: 1.7 fold
Table 12, V052955, genotype 33F + 71V + 90M
  Fold change in IC50: 5.3 fold
Table 12, V052977, genotype 10I + 33F + 54M
  Fold change in IC50: 1.8 fold
Table 12, V052978, genotype 10I + 33F + 54M + 71V + 90M
  Fold change in IC50: 5.4 fold
Table 12, V052979, genotype 10I + 54M
  Fold change in IC50: 1.8 fold
Table 12, V052980, genotype 10I + 54M + 90M
  Fold change in IC50: 1.3 fold
Table 12, V052981, genotype 10I + 54M + 71V + 90M
  Fold change in IC50: 3.2 fold
Table 12, V052982, genotype 10I + 54M + 71V + 77I + 90M
  Fold change in IC50: 2.4 fold
Table 12, V053832, genotype 10I + 33F
  Fold change in IC50: 0.4 fold
